From US20210255193A1, “LYSINE REACTIVE PROBES AND USES THEREOF” (The Scripps Research Institute, priority 2017, published 2021)

Assays:
PFKP = biological target: T1, PFKP (Homo sapiens, UniProt Q01813); assay: direct labeling of recombinantly expressed proteins by gel-based ABPP (WT vs lysine mutant); format: binding; conditions: PFKP K688, KR mutant; 10 μM probe, 1 h
T1 construct: Flag; expressed in transfected cells; host or cells: HEK 293T, transient transfection, soluble lysate; cDNA clone 5180268 (Dharmacon)
T1 sequence (Q01813 1-784): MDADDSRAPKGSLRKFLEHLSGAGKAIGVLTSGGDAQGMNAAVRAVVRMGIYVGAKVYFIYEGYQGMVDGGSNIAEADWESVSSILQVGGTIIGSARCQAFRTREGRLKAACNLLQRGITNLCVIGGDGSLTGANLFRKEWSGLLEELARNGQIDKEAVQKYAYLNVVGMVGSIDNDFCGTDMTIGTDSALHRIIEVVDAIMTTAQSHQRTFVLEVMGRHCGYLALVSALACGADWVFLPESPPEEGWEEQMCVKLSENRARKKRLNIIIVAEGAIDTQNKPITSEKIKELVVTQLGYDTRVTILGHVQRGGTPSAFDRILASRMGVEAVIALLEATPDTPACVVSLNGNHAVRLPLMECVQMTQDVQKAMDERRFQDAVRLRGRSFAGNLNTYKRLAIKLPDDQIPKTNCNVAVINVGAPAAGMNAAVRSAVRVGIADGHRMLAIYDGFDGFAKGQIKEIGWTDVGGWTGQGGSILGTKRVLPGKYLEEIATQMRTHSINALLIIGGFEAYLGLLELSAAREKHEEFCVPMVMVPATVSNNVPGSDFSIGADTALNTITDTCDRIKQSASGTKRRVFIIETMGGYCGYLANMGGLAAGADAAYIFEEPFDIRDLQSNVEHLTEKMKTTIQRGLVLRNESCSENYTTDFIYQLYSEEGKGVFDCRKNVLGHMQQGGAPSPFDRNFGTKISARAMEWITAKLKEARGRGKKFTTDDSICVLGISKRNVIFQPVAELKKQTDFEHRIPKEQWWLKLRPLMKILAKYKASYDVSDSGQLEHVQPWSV
From the text: (§1) Subcloning and mutagenesis. Unless noted below, genes were amplified from cDNA prepared from low passage HEK 293T cells using the Ribozol RNA extraction reagent (Amresco) and the iScript Reverse Transcription Supermix kit (Bio-Rad). For the following proteins cDNA clones were used for amplification instead: PFKP (5180268, Dharmacon), HK1 (BC008730, transomic), SIN3A (BC137098, transomic), G6PD (BC000337, transomic) and TGIF1 (BC031268, transomic). Mouse CARM1 in pFLAG-CMV-6c was a kind gift from the Mowen lab (TSRI). NUDT2 was obtained as synthesized gene (IDT). DNA was amplified with custom forward and reverse primers using phusion polymerase (NEB, M0530S), digested with the indicated restriction enzyme and ligated into pFLAG-CMV-6c or pRK5 with the appropriate affinity tag. Lysine mutants were generated using QuikChange site-directed mutagenesis using Phusion® High-Fidelity DNA Polymerase and primers containing the desired mutations and their respective complements. The cloning of TTR and its K35A mutant has been described in Choi et al., “Chemoselective small molecules that covalently modify one lysine in a non-enzyme protein in plasma,” Nat. Chem. Biol. 6, 133-139 (2010). TTR was expressed in E. coli and purified as described. For gel-based experiments 1 μM TTR was added into 1 mg ml^−1 soluble MDA-MB-231 lysate.
(§2) Recombinant expression of proteins by transient transfection. HEK 293T cells were grown to 50% confluency in 10 ml DMEM supplemented with 10% fetal bovine serum (FBS), penicillin, streptomycin and glutamine in 10 cm tissue culture dishes. 3 μg of DNA was diluted in 500 μL DMEM and 30 μL of PEI (MW 40,000, 1 mg ml^−1, Polysciences) were added. The mixture was incubated at room temperature for 30 min and added dropwise to the cells. Cells were grown for 48 h at 37° C. with 5% CO2. Cells were washed with cold PBS, scraped with cold PBS and cell pellets were isolated by centrifugation (1,400 g, 3 min, 4° C.), and stored at −80° C. until use. Cell pellets were resuspended in PBS, lysed by sonication and fractionated (100,000 g, 45 min) to yield soluble and membrane fractions. The soluble fraction was adjusted to a final protein concentration of 1 mg ml^−1 for gel-based ABPP experiments.
(§3) Direct labeling of recombinantly expressed proteins by gel-based ABPP. 50 μL of soluble HEK 293T proteome (1 mg ml^−1) expressing the respective protein (WT or KR mutant) or transfected with an empty vector were treated with 10 μM of the indicated probe for 1 h at room temperature. The samples were analyzed as described in the previous section. For quantification of relative labeling of the different protein variants, the intensity of labeling was determined by quantifying the integrated optical intensity of the bands using ImageLab 5.2.1 software (BioRad).

PMVK = biological target: T2, PMVK (Homo sapiens, UniProt Q15126); assay: as above; format: binding; conditions: PMVK K48, KR mutant; 10 μM probe, 1 h
T2 construct: expressed in transfected cells; host or cells: HEK 293T
T2 sequence (Q15126 1-192): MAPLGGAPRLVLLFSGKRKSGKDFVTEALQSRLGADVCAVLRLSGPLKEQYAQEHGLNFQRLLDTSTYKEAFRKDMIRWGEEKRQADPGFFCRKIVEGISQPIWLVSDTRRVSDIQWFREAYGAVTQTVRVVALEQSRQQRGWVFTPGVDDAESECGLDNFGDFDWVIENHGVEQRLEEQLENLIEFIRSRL
From the text: as §1, §2, §3

| SMILES | labeling of WT vs mutant protein by probe (PFKP) | labeling of WT vs mutant protein by probe (PMVK) |
| --- | --- | --- |
| C#CCCC(=O)Oc1c(F)c(F)c(S(=O)(=O)[O-])c(F)c1F.[Na+] [probe 1, reference compound] | HD (the WT labeled more than the mutant (>4x difference quantified)) | HD (the WT labeled more than the mutant (>4x difference quantified)) |
| C#CCCC(=O)Oc1c(F)c(F)c(F)c(F)c1F [probe 6, Pentafluorophenyl 4-pentynoate] | HD (the WT labeled more than the mutant (>4x difference quantified)) | ND (the WT did not label more than the mutant (<2x difference quantified)) |
| C#Cc1ccc(C(=O)Oc2ccccc2[N+](=O)[O-])cc1 [probe 10, 2-Nitrophenyl 4-ethynylbenzoate] | HD (the WT labeled more than the mutant (>4x difference quantified)) | ND (the WT did not label more than the mutant (<2x difference quantified)) |
| C#Cc1ccc(C(=O)Oc2c(F)c(F)cc(F)c2F)cc1 [probe 12, 2,3,5,6-Tetrafluorophenyl 4-ethynylbenzoate] | HD (the WT labeled more than the mutant (>4x difference quantified)) | ND (the WT did not label more than the mutant (<2x difference quantified)) |
| C#Cc1ccc(C(=O)Oc2c(F)c(F)c(F)c(F)c2F)cc1 [probe 13, Pentafluorophenyl 4-ethynylbenzoate] | HD (the WT labeled more than the mutant (>4x difference quantified)) | ND (the WT did not label more than the mutant (<2x difference quantified)) |
| Cc1cc(C)n2c1C=C1C=CC(CCC(=O)Oc3c(F)c(F)c(S(=O)(=O)[O-])c(F)c3F)=[N+]1[B-]2(F)F.[Na+] [probe 18, reference compound] | PD (the WT labeled more than the mutant (>2x difference quantified)) | HD (the WT labeled more than the mutant (>4x difference quantified)) |
